From patent publication US20250263396A1, “CRYSTALLINE FORMS OF 3-(5-(2-HYDROXY-2- METHYLPROPOXY)-6-METHYPYRAZIN-2-YL)-1H-INDOLE-7-CARBONITRILE” (NIDO BIOSCIENCES, INC., priority 2024, published 2025)
Where two headings read alike, the source gives them in different places.

Assays:
[1] = Solid state
Description: Bulk stability of Form P was evaluated at 25° C./92% RH in an open container, at 40° C./75% RH in an open container and at 60° C. in a tight container over 1 week, 2 weeks and 4 weeks. […] Samples after the stress were characterized by XRPD and HPLC and inspected for color change. Form P was also stressed under visible light for 1.2 million lux-hrs. at 25° C. Samples after the stress were characterized by XRPD and HPLC and inspected for color change.

[2] = Wet granulation simulation experiments; format: physicochemical
Description: Water or ethanol was added drop wise to about 10 mg of Form P until the sample is wetted sufficiently. Wet sample was ground gently with in a mortar and a pestle. Post granulation sample was dried under ambient condition for 10 min.
Water or ethanol was added drop wise to about 10 mg of Form C until the sample is wetted sufficiently. Wet sample was ground gently with in a mortar and a pestle. Post granulation sample was dried under ambient condition for 5 min.

[3] = wet cake in sealed bottle
Description: Wet cake chemical stability of Form P at 40° C., 50° C., 60° C. was evaluated.

[4] = 25° C./92.5% RH, open container, 1 week
[5] = 25° C./92.5% RH, open container, 2 weeks
[6] = 25° C./92.5% RH, open container, 4 weeks
[7] = 40° C./75% RH, open container, 1 week
[8] = 40° C./75% RH, open container, 2 weeks
[9] = 40° C./75% RH, open container, 4 weeks
[10] = 60° C., tight container, 1 week
[11] = 60° C., tight container, 2 weeks
[12] = 60° C., tight container, 4 weeks
[13] = photo (visible light, closed, 1.2 million lux-hrs at 25° C.), clear vial
[14] = photo (visible light, closed, 1.2 million lux-hrs at 25° C.), wrapped with aluminum foil

SMILES: Cc1nc(-c2c[nH]c3c(C#N)cccc23)cnc1OCC(C)(C)O [Form P, 3-(5-(2-hydroxy-2-methylpropoxy)-6-methylpyrazin-2-yl)-1H-indole-7-carbonitrile]
- Bulk (XRPD) [1, 4]: No form change
- Color [1, 4]: No color change
- Purity, Bulk (HPLC) [1, 4]: 100%
- Bulk (XRPD) [1, 5]: No form change
- Color [1, 5]: No color change
- Purity, Bulk (HPLC) [1, 5]: 100%
- Bulk (XRPD) [1, 6]: No form change
- Color [1, 6]: No color change
- Purity, Bulk (HPLC) [1, 6]: 100%
- Bulk (XRPD) [1, 7]: No form change
- Color [1, 7]: No color change
- Purity, Bulk (HPLC) [1, 7]: 100%
- Bulk (XRPD) [1, 8]: No form change
- Color [1, 8]: No color change
- Purity, Bulk (HPLC) [1, 8]: 100%
- Bulk (XRPD) [1, 9]: No form change
- Color [1, 9]: No color change
- Purity, Bulk (HPLC) [1, 9]: 100%
- Bulk (XRPD) [1, 10]: No form change
- Color [1, 10]: No color change
- Purity, Bulk (HPLC) [1, 10]: 99.9%
- Bulk (XRPD) [1, 11]: No form change
- Color [1, 11]: No color change
- Purity, Bulk (HPLC) [1, 11]: 100%
- Bulk (XRPD) [1, 12]: No form change
- Color [1, 12]: No color change
- Purity, Bulk (HPLC) [1, 12]: 100%
- Bulk, clear vial (XRPD) [1, 13]: No form change
- Color [1, 13]: medium discoloration
- Purity, Bulk, clear vial (HPLC) [1, 13]: ~60%
- Color [1, 14]: No color change
- Purity, Bulk, wrapped with aluminum foil (HPLC) [1, 14]: 100%
- Comments (crystallinity) ([2]; granulation solvent Ethanol): No obvious change in crystallinity
- XRPD ([2]; granulation solvent Ethanol): Form P
- Comments (crystallinity) ([2]; granulation solvent Water): No obvious change in crystallinity
- XRPD ([2]; granulation solvent Water): Form P
- Purity after holding ([3]; 0 h): Purity: 100%
- Purity after holding ([3]; 40° C., 22 h): 100%
- Purity after holding ([3]; 40° C., 4 d): 100%
- Purity after holding ([3]; 50° C., 22 h): 100%
- Purity after holding ([3]; 50° C., 4 d): 100%
- Purity after holding ([3]; 60° C., 22 h): 100%
- Purity after holding ([3]; 60° C., 4 d): 100%
